Measurements as given in US20110207741A1, “Activation of the Renin-Angiotensin System (RAS) and Sudden Cardiac Death” (THE BOARD OF TRUSTEES OF THE UNIVERSITY OF ILLINOIS, priority 2010, published 2011).
“And” between values parts separate entries of the source, which are not always exact repeats. Equal values may be shown once.

How the values were obtained:
Cx43 [1] = assay: Immunohistochemistry (immunostaining) for Cx43 in mouse hearts; format: in vivo
Description: (§1) The animal experiments were conducted according to the National Institutes of Health (NIH) Guide for the Care and Use of Experimental Animals and were approved by the University of Illinois Institutional Animal Care and Use Committee. Mice of both sexes were treated with 1.5-mg/kg PP1 (Enzo Life Sciences, Plymouth Meeting, Pa.), a specific inhibitor of c-Src tyrosine kinase, twice weekly for 4 consecutive weeks by intraperitoneal injection (21-23). PP3 (Enzo Life Sciences) was administered intraperitoneally at the same dose (1.5 mg/kg twice weekly for 4 consecutive weeks). The treatment of all animals was initiated when the mice were 30 days old.
The mouse hearts were fixed in 10% formalin, after which 8-μm thick sections were blocked for 1 hour at room temperature and were then incubated with anti-Cx43 antibodies overnight at 4° C. at concentrations known to provide the best signal-to-noise ratio. The slides were reviewed with a Zeiss Axioskop microscope (Carl Zeiss, Inc, Thornwood, N.Y.), and photomicrographs with original magnification×40 were taken from the apex, the mid-left ventricle (LV), and the LV base. From each of those sites, photomicrographs were taken from the endocardium and epicardium. The Cx43 content was quantified with the use of a grid that divided the field of view into 200 squares. At the intersection points aligning with the intercalated disks, Cx43 was scored as “1” (present) or “0” (absent). The results were expressed as the percentage occupied by Cx43 in the total area examined, excluding pseudospaces. This method has been used previously to quantify levels of collagen and Cx43 in cardiac tissue (24; 25).

gap junctions = assay: Functional assessment of Cx43: Lucifer yellow dye spread in intact heart muscle; format: in vivo, mouse; details: hearts of treated ACE8/8 mice
Description: as §1
We used an established technique for measuring Cx43 function that involves fluorescent dye introduction and diffusion in intact heart muscle (26). Fresh hearts were obtained from wild-type, ACE8/8, ACE8/8 PP1-treated, and ACE8/8 PP3-treated mice. A sample from each heart was placed in phosphate buffered saline at 37° C., the anterior surface of the LV was punctured with a 27-gauge needle, and the sample was incubated with a droplet of 0.5% Lucifer yellow (LY) and a droplet of 0.5% Texas Red Dextran (TRD) in 150 mM of LiCl solution. […] Dye spread in longitudinal and transverse directions was assessed.

ACE8/8 mice [2] = assay: Kaplan-Meier survival analysis of ACE8/8 mice (sudden cardiac death); format: in vivo, mouse; details: 1.5 mg/kg intraperitoneal twice weekly, 30 days of treatment and observation, untreated ACE8/8 10.2±1.5 days
Description: Previously, a transgenic mouse model of RAS activation was developed by overexpressing ACE restricted to the heart (ACE8/8 mice) via replacement of the somatic ACE promoter with the cardiac-specific α-myosin heavy chain promoter (9). These mice (ACE8/8) are not hypertensive, have structurally normal hearts with a normal left ventricular ejection fraction (LVEF), and have no ventricular fibrosis.
as §1
The values are presented as the mean±the SEM. […] The survival data were analyzed with the Kaplan-Meier method, and the value was calculated with the log-rank test. The correlation was assessed with the Pearson correlation coefficient method.

Cx43 [3] = assay: Western blot of ventricular tissue, Cx43; format: in vivo, mouse
Description: as §1
The mice were killed, and their hearts were excised. The ventricular tissue was homogenized in a buffer containing 20 mM of tris-(hydroxymethyl)-aminomethane (Tris-C1) (pH, 7.4), 150 mM of sodium chloride (NaCl), 2.5 mM of ethylenediamine tetraacetic acid (EDTA), 1% Triton-100, 10 μL/mL of phenylmethylsulfonyl fluoride (PMSF), 10 μL/mL of protein inhibitor cocktail (Pierce, Rockford, Ill.), and 10 μL/mL of phosphatase inhibitor cocktail II (Sigma-Aldrich, St. Louis, Mo.). Protein samples (5 to 20 μg) were separated via 10% sodium dodecyl sulfate polyacrylamide gel electrophoresis (SDS-PAGE) and were transferred to nitrocellulose membranes. The membranes were blotted with the primary antibodies against c-Src, phosphorylated (Tyr 416) c-Src, and Cx43 (Cell Signaling, Danvers, Mass.). For a loading control, the membranes were blotted with a primary antibody against glyceraldehyde-3-phosphate dehydrogenase (GAPDH; Santa Cruz Biotech, Santa Cruz, Calif.). After treatment with secondary antirabbit or antimouse antibodies, imaging was performed with enhanced chemiluminescence. The radiographic film images were scanned and analyzed with NIH ImageJ software.

c-Src = target: T1, c-Src (Mus musculus, UniProt P05480); assay: Western blot of ventricular tissue, total c-Src; format: in vivo; details: four weeks i.p. treatment, corrected for GAPDH
T1 construct: The ventricular tissue was homogenized in a buffer; from tissue; host or cells: mouse ventricular tissue (wild-type and ACE8/8 mice)
T1 sequence (P05480 whole entry): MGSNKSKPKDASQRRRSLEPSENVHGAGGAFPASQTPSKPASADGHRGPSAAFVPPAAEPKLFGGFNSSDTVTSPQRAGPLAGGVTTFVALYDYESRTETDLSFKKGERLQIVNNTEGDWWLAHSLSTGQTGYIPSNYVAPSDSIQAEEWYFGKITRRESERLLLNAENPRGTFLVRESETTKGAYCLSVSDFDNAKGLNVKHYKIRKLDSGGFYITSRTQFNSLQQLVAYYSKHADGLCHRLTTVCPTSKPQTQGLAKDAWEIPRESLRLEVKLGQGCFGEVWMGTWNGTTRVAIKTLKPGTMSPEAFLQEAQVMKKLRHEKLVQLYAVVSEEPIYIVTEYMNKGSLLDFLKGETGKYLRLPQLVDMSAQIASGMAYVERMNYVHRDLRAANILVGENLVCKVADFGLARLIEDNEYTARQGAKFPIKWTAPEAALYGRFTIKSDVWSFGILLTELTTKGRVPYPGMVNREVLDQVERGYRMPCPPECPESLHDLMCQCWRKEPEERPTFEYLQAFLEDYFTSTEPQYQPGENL
Description: as §1
(§2) The mice were killed, and their hearts were excised. The ventricular tissue was homogenized in a buffer containing 20 mM of tris-(hydroxymethyl)-aminomethane (Tris-C1) (pH, 7.4), 150 mM of sodium chloride (NaCl), 2.5 mM of ethylenediamine tetraacetic acid (EDTA), 1% Triton-100, 10 μL/mL of phenylmethylsulfonyl fluoride (PMSF), 10 μL/mL of protein inhibitor cocktail (Pierce, Rockford, Ill.), and 10 μL/mL of phosphatase inhibitor cocktail II (Sigma-Aldrich, St. Louis, Mo.). Protein samples (5 to 20 μg) were separated via 10% sodium dodecyl sulfate polyacrylamide gel electrophoresis (SDS-PAGE) and were transferred to nitrocellulose membranes. […] The radiographic film images were scanned and analyzed with NIH ImageJ software.

ACE8/8 mice [4] = assay: Electrophysiology study: VT inducibility by burst pacing; format: in vivo, mouse; details: treated ACE8/8 mice, untreated ACE8/8 86.9%, wild-type 3.3%
Description: as §1
The mice were anesthetized with an intraperitoneal injection of ketamine (100 mg/kg) and xylazine (5 mg/kg). After cutdown, a 1.1-F catheter with 0.5-mm interelectrode spacing (EPR 800, Millar Instruments, Houston, Tex.) was placed into the right jugular vein and was advanced into the right ventricle. A constant current stimulator (A320, World Precision Instruments, Sarasota, Fla.) connected to a laptop computer was used for cardiac stimulation. During the experiment, body temperature was maintained at 37° C. with a warming pad. Burst pacing at cycle lengths of 100 to 50 ms was used to test for VT inducibility. A rhythm with more than 3 consecutive ventricular beats was considered to be VT.

[5] = target: T2, phosphorylated (Tyr 416) c-Src (Mus musculus, UniProt P05480); assay: Western blot of ventricular tissue, phospho-(Tyr416) c-Src; format: in vivo; details: four weeks i.p. treatment, corrected for GAPDH
T2 construct: The ventricular tissue was homogenized in a buffer; from tissue; host or cells: mouse ventricular tissue (wild-type and ACE8/8 mice)
T2 sequence (P05480 whole entry): as above
Description: as §1, §2

wild-type mice = assay: Treatment of wild-type mice with PP1 (deaths, adverse reactions); format: in vivo, mouse
Description: as §1

| SMILES | Cx43 level, ratio of stained area for Cx43 to total field of view (Cx43 [1]; treated ACE8/8 mice, untreated ACE8/8 5.4±0.7%, wild-type 18.3±0.6%) | effect on Cx43 level at the gap junctions (immunostaining), in words (Cx43 [1]; vs untreated ACE8/8 mice) | effect on dye diffusion, in words (gap junctions) | mean survival time (ACE8/8 mice [2]) | effect on total Cx43 protein level (Western blot), in words (Cx43 [3]; ACE8/8 mice vs untreated ACE8/8) | total c-Src protein level, relative to untreated ACE8/8 mice (c-Src) | increase in Cx43 level/content in ACE8/8 mouse hearts (immunostaining) (Cx43 [1]; vs untreated ACE8/8 mice) | overall Lucifer yellow dye spread (gap junctions; untreated ACE8/8 0.14±0.01 mm, WT 0.21±0.02 mm) | VT inducibility rate (ACE8/8 mice [4]) | phospho-(Tyr416) c-Src protein level, relative to untreated ACE8/8 mice [5] | death in treated wild-type mice (wild-type mice; WT mice receiving PP1 1.5 mg/kg i.p. twice weekly for 4 weeks) | adverse reaction in treated wild-type mice (wild-type mice; wild-type mice, PP1 1.5 mg/kg i.p. twice weekly for 4 weeks) | increase in Cx43 protein level vs untreated ACE8/8 mice (Western blot) (Cx43 [3]; ACE8/8 mice, four weeks i.p. treatment) | Cx43 level relative to normal level in wild-type mice (Western blot) (Cx43 [3]; treated ACE8/8 mice, untreated ACE8/8 36%) |
| --- | --- | --- | --- | --- | --- | --- | --- | --- | --- | --- | --- | --- | --- | --- |
| Nc1ncnc2c1cnn2-c1ccccc1 [PP3, 1-phenyl-1H-pyrazolo[3,4-d]pyrimidin-4-amine] | 6.5+/−1% | did not increase | no statistically significant effect | 11.2 ± 1.2 days | did not increase | – | – | – | – | – | – | – | – | – |
| Cc1ccc(-c2nn(C(C)(C)C)c3ncnc(N)c23)cc1 [PP1, 1-(1,1-dimethylethyl)-1-(4-methylphenyl)-1H-pyrazolo[3,4-d]pyrimidin-4-amine] | – | – | – | 24.7 ± 0.2 days | – | 58% | 2 fold and 2.0 fold | 0.20±0.02 mm and 0.21±0.02 mm | 50% | 75% | No death happened | not associated with any adverse reaction | 2.1 fold | 68% |
